Test results as given in patent US20230049952A1, “METHODS AND COMPOUNDS FOR RESTORING MUTANT P53 FUNCTION” (PMV Pharmaceuticals, Inc., priority 2020, published 2023).

System: NF-κB signaling pathway in MT373 tumors
Assay: MT373 syngeneic sarcoma model: mouse NF-κB signaling pathway profiling panel
Format: in vivo

CCn1c(C#CCNc2ccccc2)cc2cc(CNC3CCN(C)CC3)ccc21 [Compound 1, 1-Anilino-3-{1-ethyl-5-[(1-methyl-4-piperidylamino)methyl]-1H-indol-2-yl}-2-propyne] was tested, and the “Card10 fold increase over or percent reduction vs vehicle control” value (150 mg/kg BIDx1, 72 h) was 1.39 ± 0.49 fold or %, the “Card11 fold increase over or percent reduction vs vehicle control” value (150 mg/kg BIDx1, 72 h) was 1.52 ± 0.54 fold or % and the “Casp1 fold increase over or percent reduction vs vehicle control” value (150 mg/kg BIDx1, 72 h) was 9.73 ± 31.75 fold or %. For the same compound, the “Casp8 fold increase over or percent reduction vs vehicle control” value (150 mg/kg BIDx1, 72 h) was 1.04 ± 0.13 fold or %, the “Ccl2 fold increase over or percent reduction vs vehicle control” value (150 mg/kg BIDx1, 72 h) was 52.53 ± 13.14 fold or % and the “Ccl5 fold increase over or percent reduction vs vehicle control” value (150 mg/kg BIDx1, 72 h) was 2.54 ± 37.88 fold or %. The “Cd27 fold increase over or percent reduction vs vehicle control” value (150 mg/kg BIDx1, 72 h) was 1.53 ± 0.39 fold or %, the “Cd40 fold increase over or percent reduction vs vehicle control” value (150 mg/kg BIDx1, 72 h) was 20.33 ± 32.50 fold or % and the “Cflar fold increase over or percent reduction vs vehicle control” value (150 mg/kg BIDx1, 72 h) was 1.10 ± 0.20 fold or %. For the same compound, the “Chuk fold increase over or percent reduction vs vehicle control” value (150 mg/kg BIDx1, 72 h) was 5.62 ± 25.53 fold or %, the “Crebbp fold increase over or percent reduction vs vehicle control” value (150 mg/kg BIDx1, 72 h) was 1.12 ± 0.15 fold or % and the “Csf1 fold increase over or percent reduction vs vehicle control” value (150 mg/kg BIDx1, 72 h) was 3.08 ± 4.37 fold or %. The “Csf2 fold increase over or percent reduction vs vehicle control” value (150 mg/kg BIDx1, 72 h) was 5.23 ± 19.46 fold or %, the “Csf3 fold increase over or percent reduction vs vehicle control” value (150 mg/kg BIDx1, 72 h) was 46.68 ± 13.40 fold or % and the “Egfr fold increase over or percent reduction vs vehicle control” value (150 mg/kg BIDx1, 72 h) was 1.01 ± 0.23 fold or %. The “Egr1 fold increase over or percent reduction vs vehicle control” value (150 mg/kg BIDx1, 72 h) was 66.09 ± 6.29 fold or %, the “Eif2ak2 fold increase over or percent reduction vs vehicle control” value (150 mg/kg BIDx1, 72 h) was 5.36 ± 11.08 fold or % and the “Elk1 fold increase over or percent reduction vs vehicle control” value (150 mg/kg BIDx1, 72 h) was 19.15 ± 11.29 fold or %. The “F2r fold increase over or percent reduction vs vehicle control” value (150 mg/kg BIDx1, 72 h) was 14.84 ± 13.77 fold or %, the “Fadd fold increase over or percent reduction vs vehicle control” value (150 mg/kg BIDx1, 72 h) was 1.25 ± 0.13 fold or % and the “Fasl fold increase over or percent reduction vs vehicle control” value (150 mg/kg BIDx1, 72 h) was 42.85 ± 19.54 fold or %. For the same compound, the “Fos fold increase over or percent reduction vs vehicle control” value (150 mg/kg BIDx1, 72 h) was 86.19 ± 1.00 fold or %, the “Hmox1 fold increase over or percent reduction vs vehicle control” value (150 mg/kg BIDx1, 72 h) was 1.03 ± 0.18 fold or % and the “Icam1 fold increase over or percent reduction vs vehicle control” value (150 mg/kg BIDx1, 72 h) was 1.07 ± 0.18 fold or %. For the same compound, the “Ifng fold increase over or percent reduction vs vehicle control” value (150 mg/kg BIDx1, 72 h) was 22.04 ± 33.20 fold or %, the “Ikbkb fold increase over or percent reduction vs vehicle control” value (150 mg/kg BIDx1, 72 h) was 1.24 ± 0.27 fold or % and the “Ikbke fold increase over or percent reduction vs vehicle control” value (150 mg/kg BIDx1, 72 h) was 2.05 ± 40.34 fold or %. The “Ikbkg fold increase over or percent reduction vs vehicle control” value (150 mg/kg BIDx1, 72 h) was 1.06 ± 0.32 fold or %, the “Il1a fold increase over or percent reduction vs vehicle control” value (150 mg/kg BIDx1, 72 h) was 63.60 ± 11.55 fold or % and the “Il1b fold increase over or percent reduction vs vehicle control” value (150 mg/kg BIDx1, 72 h) was 84.09 ± 6.24 fold or %. The “Il1r1 fold increase over or percent reduction vs vehicle control” value (150 mg/kg BIDx1, 72 h) was 9.26 ± 29.81 fold or %, the “Il10 fold increase over or percent reduction vs vehicle control” value (150 mg/kg BIDx1, 72 h) was 12.42 ± 41.31 fold or % and the “Irak1 fold increase over or percent reduction vs vehicle control” value (150 mg/kg BIDx1, 72 h) was 4.37 ± 14.84 fold or %. For the same compound, the “Irak2 fold increase over or percent reduction vs vehicle control” value (150 mg/kg BIDx1, 72 h) was 1.07 ± 0.14 fold or %, the “Irf1 fold increase over or percent reduction vs vehicle control” value (150 mg/kg BIDx1, 72 h) was 1.06 ± 0.20 fold or % and the “Jun fold increase over or percent reduction vs vehicle control” value (150 mg/kg BIDx1, 72 h) was 26.30 ± 10.41 fold or %. For the same compound, the “Lta fold increase over or percent reduction vs vehicle control” value (150 mg/kg BIDx1, 72 h) was 26.12 ± 35.38 fold or %, the “Ltbr fold increase over or percent reduction vs vehicle control” value (150 mg/kg BIDx1, 72 h) was 1.05 ± 0.08 fold or % and the “Map3k1 fold increase over or percent reduction vs vehicle control” value (150 mg/kg BIDx1, 72 h) was 1.25 ± 0.28 fold or %. The “Mapk3 fold increase over or percent reduction vs vehicle control” value (150 mg/kg BIDx1, 72 h) was 1.22 ± 0.17 fold or %, the “Myd88 fold increase over or percent reduction vs vehicle control” value (150 mg/kg BIDx1, 72 h) was 37.76 ± 10.69 fold or % and the “Nfkb1 fold increase over or percent reduction vs vehicle control” value (150 mg/kg BIDx1, 72 h) was 1.06 ± 0.05 fold or %. For the same compound, the “Nfkb2 fold increase over or percent reduction vs vehicle control” value (150 mg/kg BIDx1, 72 h) was 1.30 ± 0.23 fold or %, the “Nfkbia fold increase over or percent reduction vs vehicle control” value (150 mg/kg BIDx1, 72 h) was 6.09 ± 32.11 fold or % and the “Nod1 fold increase over or percent reduction vs vehicle control” value (150 mg/kg BIDx1, 72 h) was 1.26 ± 0.26 fold or %. For the same compound, the “Raf1 fold increase over or percent reduction vs vehicle control” value (150 mg/kg BIDx1, 72 h) was 4.12 ± 9.21 fold or %, the “Rel fold increase over or percent reduction vs vehicle control” value (150 mg/kg BIDx1, 72 h) was 1.09 ± 0.23 fold or % and the “Rela fold increase over or percent reduction vs vehicle control” value (150 mg/kg BIDx1, 72 h) was 1.01 ± 0.08 fold or %. For the same compound, the “Relb fold increase over or percent reduction vs vehicle control” value (150 mg/kg BIDx1, 72 h) was 3.68 ± 22.32 fold or %, the “Ripk1 fold increase over or percent reduction vs vehicle control” value (150 mg/kg BIDx1, 72 h) was 1.11 ± 0.09 fold or % and the “Ripk2 fold increase over or percent reduction vs vehicle control” value (150 mg/kg BIDx1, 72 h) was 29.79 ± 5.69 fold or %. The “Slc20a1 fold increase over or percent reduction vs vehicle control” value (150 mg/kg BIDx1, 72 h) was 36.31 ± 7.52 fold or %, the “Smad3 fold increase over or percent reduction vs vehicle control” value (150 mg/kg BIDx1, 72 h) was 1.09 ± 0.18 fold or % and the “Stat1 fold increase over or percent reduction vs vehicle control” value (150 mg/kg BIDx1, 72 h) was 1.20 ± 0.20 fold or %. The “Tbk1 fold increase over or percent reduction vs vehicle control” value (150 mg/kg BIDx1, 72 h) was 1.17 ± 0.15 fold or %, the “Tlr1 fold increase over or percent reduction vs vehicle control” value (150 mg/kg BIDx1, 72 h) was 1.52 ± 0.56 fold or % and the “Tlr2 fold increase over or percent reduction vs vehicle control” value (150 mg/kg BIDx1, 72 h) was 1.05 ± 0.16 fold or %. For the same compound, the “Tlr3 fold increase over or percent reduction vs vehicle control” value (150 mg/kg BIDx1, 72 h) was 5.46 ± 14.97 fold or %, the “Tlr4 fold increase over or percent reduction vs vehicle control” value (150 mg/kg BIDx1, 72 h) was 1.13 ± 0.27 fold or % and the “Tlr6 fold increase over or percent reduction vs vehicle control” value (150 mg/kg BIDx1, 72 h) was 1.25 ± 0.31 fold or %. For the same compound, the “Tlr9 fold increase over or percent reduction vs vehicle control” value (150 mg/kg BIDx1, 72 h) was 1.78 ± 0.32 fold or %, the “Tnf fold increase over or percent reduction vs vehicle control” value (150 mg/kg BIDx1, 72 h) was 3.41 ± 24.15 fold or % and the “Tnfaip3 fold increase over or percent reduction vs vehicle control” value (150 mg/kg BIDx1, 72 h) was 10.12 ± 40.91 fold or %. The “Tnfrsf1a fold increase over or percent reduction vs vehicle control” value (150 mg/kg BIDx1, 72 h) was 1.18 ± 0.13 fold or %, the “Tnfrsf1b fold increase over or percent reduction vs vehicle control” value (150 mg/kg BIDx1, 72 h) was 1.52 ± 0.29 fold or % and the “Tnfrsf10b fold increase over or percent reduction vs vehicle control” value (150 mg/kg BIDx1, 72 h) was 1.17 ± 0.22 fold or %. The “Tnfsf10 fold increase over or percent reduction vs vehicle control” value (150 mg/kg BIDx1, 72 h) was 1.09 ± 0.21 fold or %, the “Tnfsf14 fold increase over or percent reduction vs vehicle control” value (150 mg/kg BIDx1, 72 h) was 1.34 ± 0.30 fold or % and the “Tollip fold increase over or percent reduction vs vehicle control” value (150 mg/kg BIDx1, 72 h) was 1.11 ± 0.10 fold or %. The “Tradd fold increase over or percent reduction vs vehicle control” value (150 mg/kg BIDx1, 72 h) was 1.10 ± 0.24 fold or %, the “Traf2 fold increase over or percent reduction vs vehicle control” value (150 mg/kg BIDx1, 72 h) was 1.17 ± 0.13 fold or % and the “Traf3 fold increase over or percent reduction vs vehicle control” value (150 mg/kg BIDx1, 72 h) was 3.24 ± 6.50 fold or %. The “Traf5 fold increase over or percent reduction vs vehicle control” value (150 mg/kg BIDx1, 72 h) was 1.24 ± 0.14 fold or %, the “Traf6 fold increase over or percent reduction vs vehicle control” value (150 mg/kg BIDx1, 72 h) was 1.17 ± 0.24 fold or % and the “Zap70 fold increase over or percent reduction vs vehicle control” value (150 mg/kg BIDx1, 72 h) was 1.52 ± 0.48 fold or %. The “Agt fold increase over or percent reduction vs vehicle control” value (150 mg/kg BIDx1, […]) was 50.51 ± 41.92 fold or %, the “Akt1 fold increase over or percent reduction vs vehicle control” value (150 mg/kg BIDx1, […]) was 8.16 ± 7.88 fold or % and the “Atf1 fold increase over or percent reduction vs vehicle control” value (150 mg/kg BIDx1, […]) was 1.13 ± 0.30 fold or %. For the same compound, the “Atf2 fold increase over or percent reduction vs vehicle control” value (150 mg/kg BIDx1, […]) was 1.00 ± 0.20 fold or %, the “Bcl2a1a fold increase over or percent reduction vs vehicle control” value (150 mg/kg BIDx1, […]) was 4.90 ± 3.38 fold or % and the “Bcl2l1 fold increase over or percent reduction vs vehicle control” value (150 mg/kg BIDx1, […]) was 1.00 ± 0.07 fold or %. The “Bcl3 fold increase over or percent reduction vs vehicle control” value (150 mg/kg BIDx1, […]) was 14.36 ± 16.67 fold or %, the “Bcl10 fold increase over or percent reduction vs vehicle control” value (150 mg/kg BIDx1, […]) was 1.18 ± 0.09 fold or % and the “Birc3 fold increase over or percent reduction vs vehicle control” value (150 mg/kg BIDx1, […]) was 1.10 ± 0.26 fold or %. The “Card10 fold increase over or percent reduction vs vehicle control” value (150 mg/kg BIDx1, […]) was 40.14 ± 8.96 fold or %, the “Card11 fold increase over or percent reduction vs vehicle control” value (150 mg/kg BIDx1, […]) was 1.85 ± 0.30 fold or % and the “Casp1 fold increase over or percent reduction vs vehicle control” value (150 mg/kg BIDx1, […]) was 1.82 ± 0.71 fold or %. The “Casp8 fold increase over or percent reduction vs vehicle control” value (150 mg/kg BIDx1, […]) was 1.14 ± 0.07 fold or % and the “Ccl2 fold increase over or percent reduction vs vehicle control” value (150 mg/kg BIDx1, […]) was 1.47 ± 0.35 fold or %.
